Test results from patent publication EP4329743B1 (priority 2021, dated 2022).

Key:
[1] = test system: Neuraminidase (EC 3.2.1.18); test: Neuraminidase activity assay (colorimetric kit, Sigma Aldrich MAK121); assay type: biochemical; details: maximum activity set 100%; mean of three independent experiments; Figure 4
Procedure: Neuraminidase (EC 3.2.1.18) also known as sialidase is an enzyme that hydrolyzes terminal sialic acid residues on polysaccharide chains. It is predominantly expressed on the surface of viruses and bacteria. For activity measurement, the activity was measured using the neuraminidase activity kit from Sigma Aldrich (Cat.No.: MAK121). Accordingly, the neuraminidase activity is determined by an enzymatic essay in which the sialic acid released by neuraminidase results in the colorimetric product directly proportional to neuraminidase activity in the sample. The reaction master mixture contained assay buffer, (+/-) substrate, cofactors, neuraminidase, and dye-reagent. The activity is expressed as units/L and maximum activity was arbitrarily set 100%. The effect of ethyl pyruvate and ethyl lactate on enzyme activity was evaluated by comparing the change of the absorbance against the samples with substrate (maximum activity) and without the substrate (blank).

influenza virus H9N2 = assay type: cell-based; details: MDCK II cells, H9N2, 1 h infection, 2 days culture; ethyl pyruvate 42 mM; Figure 5
[2] = test system: inflammatory cytokines such as TNF-alpha, IL-1β, IL-6 and IL-8; test: Release of inflammatory cytokines from LPS-stimulated human whole blood (cytometric bead array); assay type: cell-based; details: whole blood diluted 1:5, LPS 10ng/ml, 1 to 20 mM, 6 h; Figure 6
Procedure: Human heparinized whole blood was diluted with RPMI 1640 medium (ThermoFisher Scientific) (1:5) and incubated with LPS (10ng/ml) and increasing concentration of ethyl pyruvate (A-D) or ethyl lactate (E-H) (1 to 20 mM) for 6 h at 37°C with 5% CO2. Following incubation, the plates were centrifuged at 2000g for 10 min and the proinflammatory cytokines were analysed by cytometric bead array using a FACSCalibur and the CellQuestTMSoftware (BD Biosciences).

Structure (SMILES)	activity of neuraminidase [1]	cytopathic effect of the influenza virus (cellular structures and confluency) (influenza virus H9N2)	release of inflammatory cytokines (TNF-alpha, IL-1β, IL-6, IL-8) [2]	toxic effect on MDCK II cells (MDCK II cells)
CCOC(=O)C(C)O (centres unmarked) [ethyl lactate]	only minimum inhibitory effect	does not protect MDCK II cells from the cytopathic effect of the virus	effectively inhibited	no toxic effect
CCOC(=O)C(C)=O [ethyl pyruvate, Ethyl pyruvate]	inhibits activity of neuraminidase in a concentration-dependent manner	the cellular structures and confluency is preserved	effectively inhibited	no toxic effect
